# Data: patent US8501186B2, “Adjuvant composition for vaccine” (Serum Institute of India, Ltd., priority 2009, dated 2013)
# Tested on: normal mice
# Assay: Comparative adjuvant activity on total anti-polysaccharide IgG levels in normal mice (Meningococcal A polysaccharide)
# Assay type: in vivo
# Conditions: parenteral, 14 and 28 day; for Total IgG level: IgG day 42, Mean ± SE
# Experimental: The present adjuvant and extracts were administered with Meningococcal A polysaccharide on indicated days and IgG levels were estimated on day 42 to assess adjuvant activity.
compound,measurement,setting,value
CC1=C(C)C(=O)O[C@@H]([C@](C)(O)[C@H]2CC[C@H]3[C@@H]4[C@@H]5O[C@@H]5[C@@]5(O)CC=CC(=O)[C@]5(C)[C@H]4CC[C@]23C)C1 [Withanolide A],Activity (%) (percent immunomodulatory activity),0.0185 mg/kg,14.62%
same,Total IgG level,0.0185 mg/kg,329.84 ± 86.82
CC1=C(CO)C(=O)O[C@@H]([C@@H](C)[C@H]2CC[C@H]3[C@@H]4C[C@H]5O[C@]56[C@@H](O)C=CC(=O)[C@]6(C)[C@H]4CC[C@]23C)C1 [Withaferin A],Activity (%) (percent immunomodulatory activity),0.011 mg/kg,38.12%
same,Total IgG level,0.011 mg/kg,397.47 ± 93.71
